Assay in all cases: NCI anticancer screen, dose series, 48 h
The subject of assay [1] is BT-549 breast.
Assay [2] has as its system CAKI-1 renal.
Assay [3] has as its system COLO 205 colon.
Assay [4] concerns HCT-15 colon.
The subject of assay [5] is M14 melanoma.
Assay [6] relates to NCI-H226 lung.
The subject of assay [7] is NCI-H23 lung.
The test system of assay [8] is OVCAR-8 ovarian.
In assay [9] the test system is SR leukemia.
Assay [10] has as its system UACC-257 melanoma.

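Tested at 5 concentrations; 48 h exposure; 96-well plates; endpoints linearly interpolated, else capped at highest concentration. GI50 marks 50% less growth. TGI denotes the concentration required for complete inhibition of growth.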 Some results are limits rather than exact numbers.

In the case of `O=S(=O)(c1ccc(Cl)cc1)C(Cl)(Cl)Cl`, the GI50 was 1.4 µM in assay [1]; 0.251 µM in assay [2]; 3.38 µM in assay [3]; 1.19 µM in [4]; 1.63 µM in assay [5]; 4.86 µM in [6]. The GI50 was 2.69 µM in [7], 3.5 µM in [8], 0.486 µM in assay [9] and 2.1 µM in assay [10]. The TGI in assay [1] was 7.48 µM; in assay [2], 0.879 µM; in assay [3], greater than 53.4 µM; in assay [4], greater than 100 µM; in assay [5], 4.32 µM; in [6], 21.9 µM. The TGI in assay [7] was 17.7 µM; in assay [8], 35.5 µM; in assay [9], 39.7 µM; in assay [10], 11.8 µM.

Regarding `CO/N=C(\COc1ccc2c(c1)[nH]c1ccccc12)c1ccc(F)cc1`, the GI50 in [1], in assay [2], in assay [3], in [4], in assay [5] and in assay [6] was greater than 100 µM each time. Further, the GI50 in [7] was greater than 100 µM; in assay [8], 10.4 µM; in assay [10], 48.7 µM. Further, the TGI in assay [1], in assay [2], in assay [3], in [4], in [5] and in assay [6] was greater than 100 µM throughout. Also, the TGI in assay [7], in assay [8] and in assay [10] was greater than 100 µM each time.

Turning to `COc1ccc2c(c1)N(CCO)C1=C(C(=O)OC1)C2c1cccc(F)c1` (stereo unspecified), the GI50 in assay [1] was 0.761 µM; in assay [2] it was 0.393 µM; in assay [3], 0.526 µM; in assay [4], 0.233 µM; in assay [5], 0.285 µM; in assay [6] it was 4.16 µM. The GI50 in assay [7] was 1.8 µM; in [8], 1.24 µM; in [9], 0.195 µM; in assay [10] it was greater than 50 µM. For the same compound, the TGI in assay [1] was greater than 14.4 µM; in assay [2] it was greater than 50 µM; in assay [3], 3.25 µM; in assay [4], greater than 50 µM; in assay [5] it was greater than 50 µM; in assay [6], greater than 50 µM. The TGI in assay [7], in assay [8], in assay [9] and in [10] was greater than 50 µM each time.

For the compound `CCc1ccc2c(c1)N(CCO)C1=C(C(=O)OC1)C2c1cccc(Br)c1` (stereo unspecified), the GI50 is 1.35 µM in assay [1]; 0.711 µM in assay [2]; 0.358 µM in assay [3]; 0.584 µM in [4]; 0.525 µM in [5]; 0.988 µM in assay [6]. The GI50 in [7] is 0.66 µM; in [8], 0.847 µM; in assay [9] it was 0.409 µM; in assay [10], 0.623 µM. Moreover, the TGI was determined as 19.7 µM in [1]; 23 µM in assay [2]; 1.42 µM in assay [3]; 15.8 µM in assay [4]; 10.8 µM in assay [5]; 13.2 µM in assay [6]. Also, the TGI in [7] came to 15.6 µM; in assay [8] it was 19.6 µM; in [9] it was 20.3 µM; in assay [10], 19.6 µM.

On to `OCC1OC(n2cnc3c(N/N=C\c4ccccn4)ncnc32)C(O)C1O` (stereo unspecified), for which the GI50 in assay [1] is 0.256 µM; in assay [2], 0.202 µM; in assay [3], 0.622 µM; in assay [4], 0.129 µM; in [5], 0.426 µM; in assay [6] it was 0.525 µM. Also, the GI50 in assay [7] was 0.476 µM; in assay [8] it was 0.164 µM; in [9], 0.0387 µM; in assay [10], 1.24 µM. In addition, the TGI in assay [1] was 23 µM; in assay [2], 0.809 µM; in [3], greater than 100 µM; in assay [4] it was greater than 100 µM; in assay [5] it was 3.89 µM; in [6], greater than 100 µM. The TGI in [7] is greater than 100 µM; in assay [8], 53.7 µM; in assay [9], greater than 87.7 µM; in [10], 8.68 µM.

For the compound `O=C(/C=C/c1cc2ccccc2[nH]c1=O)/C=C/c1cc2ccccc2[nH]c1=O`, the GI50 was 6.86 µM in [1]; 15.2 µM in [2]; 10.2 µM in [3]; 9.96 µM in assay [4]; 14.9 µM in assay [6]; 9.25 µM in assay [7]. The results for the GI50 in assay [8], in assay [9] and in [10] were 9.84 µM, 6.42 µM and 8.32 µM, respectively. Besides, the TGI was 12.4 µM in [1]; greater than 100 µM in [2]; greater than 59.7 µM in assay [3]; greater than 100 µM in assay [4]; 38.1 µM in assay [6]; 48.9 µM in assay [7]. In addition, the TGI was greater than 72.8 µM in assay [8], greater than 100 µM in assay [9] and 19.6 µM in assay [10].

Turning to `N#CC1(C(N)=O)C(c2ccc(Cl)cc2)CC(=O)CC1c1ccc(Cl)cc1` (stereo unspecified), the GI50 in [1] is 14.6 µM; in assay [2], 20.4 µM; in assay [3], 15.6 µM; in [4], 16.8 µM; in [5], 16.2 µM; in assay [6], 16 µM. Further, the GI50 in assay [8] was 18.4 µM; in assay [10] it was 17.5 µM. The TGI in assay [1] was 27.7 µM; in assay [2] it was 55.9 µM; in [3] it was 30.4 µM; in assay [4] it was 34.3 µM; in assay [5] it was 29.7 µM; in [6] it was 31.6 µM. For the same compound, the TGI in assay [8] was determined as 42.2 µM; in [10], 36 µM.

As to `CCCCCCCCCCCCCCCCCC[n+]1ccc2c(C)c3c(c(C)c2c1)c1cc(O)ccc1n3CC`, the GI50 is 2.72 µM in assay [1]; 11.5 µM in [2]; 3.34 µM in assay [4]; 1.43 µM in assay [5]; 1.88 µM in [6]; 0.912 µM in [7]. In [8], the GI50 is 1.71 µM. Also, the TGI came to 10.5 µM in [1]; 28.7 µM in assay [2]; 47.1 µM in assay [4]; 3.34 µM in assay [5]; 8.68 µM in assay [6]; 6.57 µM in assay [7]. The same compound had a TGI in assay [8] of 6.53 µM.

The values are drawn from PubChem BioAssay (NCI).
